The test system of one test is S. aureus UC ® 9213. Nature of the test: MIC by agar dilution, S. aureus UC 9213. Conditions: Staphylococcus aureus. The test is classed as cell-based. The source says: (§1) The oxazolidinone antibacterial agents of this invention have useful activity against a variety of organisms. The in vitro activity of compounds of this invention can be assessed by standard testing procedures such as the determination of minimum inhibitory concentration (MIC) by agar dilution as described in "Methods for Dilution Antimicrobial Susceptibility Tests for Bacteria That Grow Aerobically" (MFT) published January 1983 by the National Committee for Clinical Laboratory Standards, 771 East Lancaster Avenue, Villanova, Pa. 19084, USA. The activity of selected compounds of this invention against Staphylococcus aureus and Streptococcus pneumoniae are shown in Table 1.
(In general: Agar dilution tests growth on a series of plates holding different concentrations.)

A further test deals with S. pneumoniae UC® 9912. In words: MIC by agar dilution, S. pneumoniae UC 9912. Conditions: Streptococcus pneumoniae. The test is classed as cell-based.
Text: as §1

Where [1] appears, read: UC9213, S. aureus UC 9213, in vitro, agar dilution, read-out: Minimum Inhibitory Concentration.
Where [2] appears, read: UC9912, S. pneumoniae UC 9912, in vitro, agar dilution, read-out: Minimum Inhibitory Concentration.

Values after ≈ are worked out from the molar mass of the structure shown. Where two headings read alike, the source gives them in different places.

As for `CN[C@H](CC(C)C)C(=O)N[C@H]1C(=O)N[C@@H](CC(N)=O)C(=O)N[C@H]2C(=O)N[C@H]3C(=O)N[C@H](C(=O)N[C@H](C(=O)O)c4cc(O)cc(O)c4-c4cc3ccc4O)[C@H](O)c3ccc(c(Cl)c3)Oc3cc2cc(c3O[C@@H]2O[C@H](CO)[C@@H](O)[C@H](O)[C@H]2O[C@H]2C[C@](C)(N)[C@H](O)[C@H](C)O2)Oc2ccc(cc2Cl)[C@H]1O` [vancomycin, reference compound], the MIC with S. aureus UC ® 9213 (UC9213, read-out: Minimum Inhibitory Concentration) was 1 µg/mL (≈ 0.69 µM); in the test with S. pneumoniae UC® 9912 (UC9912, read-out: Minimum Inhibitory Concentration), 0.5 µg/mL (≈ 0.345 µM).

For `CC(=O)NC[C@H]1CN(c2ccc(N3C[C@H]4CN(C(=O)OCc5ccccc5)C[C@H]4C3)c(F)c2)C(=O)O1` [Example 1, (S)-N-[[3-[4-[cis-3-(carbobenzyloxy)-3,7-diazabicyclo[3.3.0]octan-7-yl]-3-fluorophenyl]-2-oxo-5-oxazolidinyl]methyl]acetamide], the MIC in the test on S. aureus UC ® 9213 (setting [1]) is 4 µg/mL (≈ 8.06 µM); in the test with S. pneumoniae UC® 9912 (setting [2]) it was 2 µg/mL (≈ 4.03 µM).

As for `CC(=O)NC[C@H]1CN(c2ccc(N3C[C@H]4CN(C(=O)CO)C[C@H]4C3)c(F)c2)C(=O)O1` [Example 3, (S)-N-[[3-[3-fluoro4-[cis-3-(hydroxyacetyl)-3,7-diazabicyclo[3.3.0]octan-7-yl]phenyl]-2-oxo-5-oxazolidinyl]methyl]acetamide], the figures for the MIC with S. aureus UC ® 9213 (setting [1]) and in the test on S. pneumoniae UC® 9912 (setting [2]) were 4 µg/mL (≈ 9.51 µM) and under 0.5 µg/mL, respectively.

For the molecule `CC(=O)NC[C@H]1CN(c2ccc(N3C[C@H]4CN(C(=O)COCc5ccccc5)C[C@H]4C3)c(F)c2)C(=O)O1` [Example 2, (S)-N-[[3-[3-fluoro4-[cis-3-(benzyloxyacetyl)-3,7-diazabicyclo[3.3.0]octan-7-yl]phenyl]-2-oxo-5-oxazolidinyl]methyl]acetamide], the MIC turned out to be 8 µg/mL (≈ 15.7 µM) in the test on S. aureus UC ® 9213 (setting [1]) and 1 µg/mL (≈ 1.96 µM) in the test on S. pneumoniae UC® 9912 (setting [2]).

The record behind these values is US6090820A, “Spirocyclic and bicyclic diazinyl and carbazinyl oxazolidinones” (Pharmacia & Upjohn Company, priority 1997, dated 2000).
